Assay results from ChEMBL document CHEMBL4725309, “Potent, non-covalent reversible BTK inhibitors with 8-amino-imidazo[1,5-a]pyrazine core featuring 3-position bicyclic ring substitutes” (Bioorg Med Chem Lett, 2020).

Tests used:
[1] = organism: Homo sapiens; assay: Selectivity index, ratio of IC50 for TXK (unknown origin) to IC50 for recombinant full length BTK (unknown origin) expressed in baculovirus infected Sf9 cells
[2] = organism: Homo sapiens; assay: Selectivity index, ratio of IC50 for LCK (unknown origin) to IC50 for recombinant full length BTK (unknown origin) expressed in baculovirus infected Sf9 cells
[3] = organism: Homo sapiens; assay: Selectivity index, ratio of IC50 for FRK (unknown origin) to IC50 for recombinant full length BTK (unknown origin) expressed in baculovirus infected Sf9 cells
[4] = target: Tyrosine-protein kinase Lck (Homo sapiens, UniProt P06239); assay: Inhibition of LCK (unknown origin)
Chain of Tyrosine-protein kinase Lck (P06239 whole entry): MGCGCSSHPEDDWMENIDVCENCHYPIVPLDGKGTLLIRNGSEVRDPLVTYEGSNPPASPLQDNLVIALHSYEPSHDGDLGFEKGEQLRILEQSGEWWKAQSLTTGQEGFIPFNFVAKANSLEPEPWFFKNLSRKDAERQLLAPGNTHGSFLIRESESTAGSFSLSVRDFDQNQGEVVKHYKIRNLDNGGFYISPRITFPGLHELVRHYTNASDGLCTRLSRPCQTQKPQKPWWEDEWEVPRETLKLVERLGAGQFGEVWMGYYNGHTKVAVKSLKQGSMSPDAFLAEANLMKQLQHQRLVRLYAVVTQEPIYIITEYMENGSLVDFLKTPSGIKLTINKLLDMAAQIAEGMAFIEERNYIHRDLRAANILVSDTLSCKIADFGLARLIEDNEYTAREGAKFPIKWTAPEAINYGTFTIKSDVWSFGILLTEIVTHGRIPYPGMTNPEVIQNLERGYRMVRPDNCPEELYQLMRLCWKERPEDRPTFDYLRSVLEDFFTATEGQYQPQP

[5] = target: Tyrosine-protein kinase FRK (Homo sapiens, UniProt P42685); assay: Inhibition of FRK (unknown origin)
[6] = target: Receptor tyrosine-protein kinase erbB-4 (Homo sapiens, UniProt Q15303); assay: Inhibition of ERBB4 (unknown origin)
Chain of Receptor tyrosine-protein kinase erbB-4 (Q15303 whole entry): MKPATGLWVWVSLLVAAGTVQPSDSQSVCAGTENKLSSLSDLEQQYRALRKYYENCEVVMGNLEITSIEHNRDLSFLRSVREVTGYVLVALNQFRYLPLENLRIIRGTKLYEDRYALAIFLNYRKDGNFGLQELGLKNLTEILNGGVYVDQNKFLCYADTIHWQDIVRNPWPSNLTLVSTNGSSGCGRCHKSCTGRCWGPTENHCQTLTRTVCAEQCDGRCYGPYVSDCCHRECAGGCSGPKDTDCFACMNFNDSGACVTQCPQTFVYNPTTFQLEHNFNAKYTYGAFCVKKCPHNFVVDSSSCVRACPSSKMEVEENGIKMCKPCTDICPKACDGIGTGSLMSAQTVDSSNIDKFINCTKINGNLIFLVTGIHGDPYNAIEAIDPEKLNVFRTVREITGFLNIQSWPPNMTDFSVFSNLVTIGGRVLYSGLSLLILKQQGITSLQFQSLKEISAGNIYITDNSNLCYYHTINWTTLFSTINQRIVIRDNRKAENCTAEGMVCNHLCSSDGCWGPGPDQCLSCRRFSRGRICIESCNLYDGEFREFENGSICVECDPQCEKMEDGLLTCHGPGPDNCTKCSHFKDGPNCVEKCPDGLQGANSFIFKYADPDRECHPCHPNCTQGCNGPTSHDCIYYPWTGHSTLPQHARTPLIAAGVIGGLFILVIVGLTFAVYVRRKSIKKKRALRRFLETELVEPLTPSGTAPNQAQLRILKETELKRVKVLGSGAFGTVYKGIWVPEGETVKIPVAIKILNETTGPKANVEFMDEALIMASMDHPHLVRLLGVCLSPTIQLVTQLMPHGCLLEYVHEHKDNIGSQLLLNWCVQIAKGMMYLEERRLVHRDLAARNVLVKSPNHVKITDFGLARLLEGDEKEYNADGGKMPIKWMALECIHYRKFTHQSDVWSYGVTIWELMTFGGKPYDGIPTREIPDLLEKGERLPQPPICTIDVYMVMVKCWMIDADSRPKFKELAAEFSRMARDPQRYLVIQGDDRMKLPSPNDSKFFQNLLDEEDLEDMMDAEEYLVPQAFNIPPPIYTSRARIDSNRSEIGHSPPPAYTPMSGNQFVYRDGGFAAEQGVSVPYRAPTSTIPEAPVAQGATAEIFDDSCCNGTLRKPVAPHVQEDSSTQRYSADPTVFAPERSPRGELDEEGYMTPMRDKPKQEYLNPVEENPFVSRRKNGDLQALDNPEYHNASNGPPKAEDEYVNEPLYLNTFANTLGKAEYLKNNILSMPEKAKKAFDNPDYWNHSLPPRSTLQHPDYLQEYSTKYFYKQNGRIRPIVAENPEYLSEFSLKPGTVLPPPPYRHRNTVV

[7] = target: T1, Tyrosine-protein kinase BTK (Homo sapiens, UniProt Q06187); assay: Inhibition of BTK in human PBMC assessed as reduction in cell surface CD69 expression preincubated for 1 hr followed by stimulation with goat anti-human IgM F(ab')2 for 18 hrs by immunostaining analysis; type: tissue-based
[8] = target: Tyrosine-protein kinase Yes (Homo sapiens, UniProt P07947); assay: Inhibition of YES1 (unknown origin)
Chain of Tyrosine-protein kinase Yes (P07947 whole entry): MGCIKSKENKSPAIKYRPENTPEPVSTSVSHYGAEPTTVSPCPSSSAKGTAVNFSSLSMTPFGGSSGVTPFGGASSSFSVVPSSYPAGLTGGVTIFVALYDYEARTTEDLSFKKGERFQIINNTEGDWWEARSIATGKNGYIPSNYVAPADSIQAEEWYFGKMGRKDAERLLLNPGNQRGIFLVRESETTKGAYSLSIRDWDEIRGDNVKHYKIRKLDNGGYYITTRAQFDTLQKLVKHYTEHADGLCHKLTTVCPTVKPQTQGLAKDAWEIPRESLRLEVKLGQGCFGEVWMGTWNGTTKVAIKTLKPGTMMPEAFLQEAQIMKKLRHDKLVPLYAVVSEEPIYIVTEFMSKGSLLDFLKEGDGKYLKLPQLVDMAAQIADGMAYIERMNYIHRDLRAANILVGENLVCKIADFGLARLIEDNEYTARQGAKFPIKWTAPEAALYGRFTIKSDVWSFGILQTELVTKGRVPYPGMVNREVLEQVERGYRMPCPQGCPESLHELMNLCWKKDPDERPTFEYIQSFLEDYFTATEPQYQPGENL

[9] = Volume of distribution at steady state in Wistar Han rat at 2 mg/kg, iv; type: ADME, organism-based; settings: in vivo, read-out: Vdss
[10] = organism: Homo sapiens; assay: Selectivity index, ratio of IC50 for CSK (unknown origin) to IC50 for recombinant full length BTK (unknown origin) expressed in baculovirus infected Sf9 cells
[11] = target: T2, Tyrosine-protein kinase TXK (Homo sapiens, UniProt P42681); assay: Inhibition of TXK (unknown origin)
T2 sequence (P42681 whole entry): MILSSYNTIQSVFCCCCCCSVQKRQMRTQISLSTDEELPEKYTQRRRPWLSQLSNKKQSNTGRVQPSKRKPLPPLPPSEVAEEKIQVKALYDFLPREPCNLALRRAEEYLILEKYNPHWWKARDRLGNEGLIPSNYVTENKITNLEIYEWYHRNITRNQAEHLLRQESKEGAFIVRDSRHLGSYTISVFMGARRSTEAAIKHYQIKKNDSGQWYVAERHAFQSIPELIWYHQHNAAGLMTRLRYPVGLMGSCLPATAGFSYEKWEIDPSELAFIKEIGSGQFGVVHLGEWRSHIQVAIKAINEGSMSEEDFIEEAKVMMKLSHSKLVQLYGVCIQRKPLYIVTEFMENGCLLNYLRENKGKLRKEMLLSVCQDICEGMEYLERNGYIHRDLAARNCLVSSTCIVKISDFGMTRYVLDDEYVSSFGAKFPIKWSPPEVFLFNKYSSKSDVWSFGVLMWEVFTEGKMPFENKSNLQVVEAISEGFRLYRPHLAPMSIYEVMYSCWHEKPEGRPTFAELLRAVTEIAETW

[12] = target: Tyrosine-protein kinase Srms (Homo sapiens, UniProt Q9H3Y6); assay: Inhibition of SRMS (unknown origin)
Chain of Tyrosine-protein kinase Srms (Q9H3Y6 whole entry): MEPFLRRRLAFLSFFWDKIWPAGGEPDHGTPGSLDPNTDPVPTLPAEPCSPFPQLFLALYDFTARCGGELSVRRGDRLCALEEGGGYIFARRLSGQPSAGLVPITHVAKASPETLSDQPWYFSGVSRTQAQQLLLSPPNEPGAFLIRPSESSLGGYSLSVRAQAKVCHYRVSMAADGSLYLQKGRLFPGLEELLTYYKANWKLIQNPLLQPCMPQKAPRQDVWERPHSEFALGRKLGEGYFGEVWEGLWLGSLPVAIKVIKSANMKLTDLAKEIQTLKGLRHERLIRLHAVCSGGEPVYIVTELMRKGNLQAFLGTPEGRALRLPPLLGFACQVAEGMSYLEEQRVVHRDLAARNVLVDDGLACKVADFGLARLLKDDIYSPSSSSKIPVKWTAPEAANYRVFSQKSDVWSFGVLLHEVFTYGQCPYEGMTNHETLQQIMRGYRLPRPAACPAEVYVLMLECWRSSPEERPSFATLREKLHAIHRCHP

[13] = Oral bioavailability in Wistar Han rat at 5 mg/kg; type: ADME, organism-based; settings: in vivo; for bioavailability: Wistar Han
[14] = Tmax in Wistar Han rat at 5 mg/kg, po; type: ADME, organism-based; settings: in vivo
[15] = organism: Homo sapiens; assay: Selectivity index, ratio of IC50 for BLK (unknown origin) to IC50 for recombinant full length BTK (unknown origin) expressed in baculovirus infected Sf9 cells
[16] = target: Protein-tyrosine kinase 6 (Homo sapiens, UniProt Q13882); assay: Inhibition of PTK6 (unknown origin)
Chain of Protein-tyrosine kinase 6 (Q13882 whole entry): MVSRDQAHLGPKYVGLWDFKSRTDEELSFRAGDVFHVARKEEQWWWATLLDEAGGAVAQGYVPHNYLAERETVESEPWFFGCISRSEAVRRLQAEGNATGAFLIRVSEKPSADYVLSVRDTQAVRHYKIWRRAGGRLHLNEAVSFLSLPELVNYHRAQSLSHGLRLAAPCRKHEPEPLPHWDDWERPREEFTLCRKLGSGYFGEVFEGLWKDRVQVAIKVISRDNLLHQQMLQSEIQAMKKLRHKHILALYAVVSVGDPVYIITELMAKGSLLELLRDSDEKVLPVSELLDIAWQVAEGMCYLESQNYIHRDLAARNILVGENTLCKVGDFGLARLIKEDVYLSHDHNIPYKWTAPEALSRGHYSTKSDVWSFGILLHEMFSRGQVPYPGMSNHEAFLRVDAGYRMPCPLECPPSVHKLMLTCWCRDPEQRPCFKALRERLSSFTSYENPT

[17] = organism: Homo sapiens; assay: Selectivity index, ratio of IC50 for PTK6 (unknown origin) to IC50 for recombinant full length BTK (unknown origin) expressed in baculovirus infected Sf9 cells
[18] = target: Tyrosine-protein kinase CSK (Homo sapiens, UniProt P41240); assay: Inhibition of CSK (unknown origin)
Chain of Tyrosine-protein kinase CSK (P41240 whole entry): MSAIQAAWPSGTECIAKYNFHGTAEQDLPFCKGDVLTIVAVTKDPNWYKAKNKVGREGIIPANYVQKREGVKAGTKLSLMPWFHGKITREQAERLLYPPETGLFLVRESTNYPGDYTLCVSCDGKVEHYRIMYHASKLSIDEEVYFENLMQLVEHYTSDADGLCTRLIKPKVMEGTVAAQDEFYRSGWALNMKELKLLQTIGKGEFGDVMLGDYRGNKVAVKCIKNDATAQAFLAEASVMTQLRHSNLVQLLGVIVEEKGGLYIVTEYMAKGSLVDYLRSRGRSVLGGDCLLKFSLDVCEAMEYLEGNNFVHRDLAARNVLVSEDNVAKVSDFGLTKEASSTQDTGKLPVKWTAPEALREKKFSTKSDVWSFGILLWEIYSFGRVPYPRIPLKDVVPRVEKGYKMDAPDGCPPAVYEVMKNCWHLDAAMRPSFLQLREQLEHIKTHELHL

[19] = organism: Homo sapiens; assay: Selectivity index, ratio of IC50 for SRC (unknown origin) to IC50 for recombinant full length BTK (unknown origin) expressed in baculovirus infected Sf9 cells
[20] = organism: Homo sapiens; assay: Selectivity index, ratio of IC50 for TEC (unknown origin) to IC50 for recombinant full length BTK (unknown origin) expressed in baculovirus infected Sf9 cells
[21] = target: Tyrosine-protein kinase Blk (Homo sapiens, UniProt P51451); assay: Inhibition of BLK (unknown origin)
Chain of Tyrosine-protein kinase Blk (P51451 whole entry): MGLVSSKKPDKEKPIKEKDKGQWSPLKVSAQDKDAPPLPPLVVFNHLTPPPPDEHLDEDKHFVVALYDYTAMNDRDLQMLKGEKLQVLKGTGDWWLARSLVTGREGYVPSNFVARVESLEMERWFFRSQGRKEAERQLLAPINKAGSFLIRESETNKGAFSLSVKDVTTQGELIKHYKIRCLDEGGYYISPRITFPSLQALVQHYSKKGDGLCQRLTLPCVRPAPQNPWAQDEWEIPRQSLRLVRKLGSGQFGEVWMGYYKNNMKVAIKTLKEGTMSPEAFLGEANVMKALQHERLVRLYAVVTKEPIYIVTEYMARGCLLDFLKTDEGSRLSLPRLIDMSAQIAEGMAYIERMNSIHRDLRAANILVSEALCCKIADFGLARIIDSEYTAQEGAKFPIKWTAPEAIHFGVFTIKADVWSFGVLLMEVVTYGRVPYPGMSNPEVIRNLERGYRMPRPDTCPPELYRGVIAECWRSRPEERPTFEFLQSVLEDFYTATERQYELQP

[22] = organism: Homo sapiens; assay: Selectivity index, ratio of IC50 for FYN (unknown origin) to IC50 for recombinant full length BTK (unknown origin) expressed in baculovirus infected Sf9 cells
[23] = target: Tyrosine-protein kinase Lyn (Homo sapiens, UniProt P07948); assay: Inhibition of LYNB (unknown origin)
[24] = organism: Homo sapiens; assay: Selectivity index, ratio of IC50 for LYNB (unknown origin) to IC50 for recombinant full length BTK (unknown origin) expressed in baculovirus infected Sf9 cells
[25] = target: Tyrosine-protein kinase Fyn (Homo sapiens, UniProt P06241); assay: Inhibition of FYN (unknown origin)
[26] = target: T1, Tyrosine-protein kinase BTK; assay: Inhibition of BTK in human whole blood assessed as reduction in cell surface CD69 expression preincubated for 1 hr followed by stimulation with anti-CD79b for 3 hrs by immunostaining analysis; type: tissue-based
[27] = target: Proto-oncogene tyrosine-protein kinase Src (Homo sapiens, UniProt P12931); assay: Inhibition of SRC (unknown origin)
Chain of Proto-oncogene tyrosine-protein kinase Src (P12931 2-536 limits assumed): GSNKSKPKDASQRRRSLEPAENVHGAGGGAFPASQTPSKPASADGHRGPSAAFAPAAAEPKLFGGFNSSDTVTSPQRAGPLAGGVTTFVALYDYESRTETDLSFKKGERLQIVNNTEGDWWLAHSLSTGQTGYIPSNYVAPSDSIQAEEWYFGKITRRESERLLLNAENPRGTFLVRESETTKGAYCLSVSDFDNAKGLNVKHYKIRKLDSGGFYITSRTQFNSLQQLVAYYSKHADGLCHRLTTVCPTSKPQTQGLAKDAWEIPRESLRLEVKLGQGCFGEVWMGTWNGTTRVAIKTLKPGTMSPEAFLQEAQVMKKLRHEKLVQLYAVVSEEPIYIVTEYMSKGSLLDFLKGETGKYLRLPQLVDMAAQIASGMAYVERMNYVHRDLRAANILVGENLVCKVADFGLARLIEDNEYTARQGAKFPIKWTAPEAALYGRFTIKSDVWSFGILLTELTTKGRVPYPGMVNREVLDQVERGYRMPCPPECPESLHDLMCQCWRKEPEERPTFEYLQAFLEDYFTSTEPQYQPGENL

[28] = Cmax in Wistar Han rat at 5 mg/kg, po; type: ADME, organism-based; design: route oral, dose 5 mg/kg; settings: in vivo
[29] = organism: Homo sapiens; assay: Selectivity index, ratio of IC50 for YES1 (unknown origin) to IC50 for recombinant full length BTK (unknown origin) expressed in baculovirus infected Sf9 cells
[30] = organism: Homo sapiens; assay: Selectivity index, ratio of IC50 for SRMS (unknown origin) to IC50 for recombinant full length BTK (unknown origin) expressed in baculovirus infected Sf9 cells

Row | Structure (SMILES) | Ratio IC50 [1] | Ratio IC50 [2] | Ratio IC50 [3] | IC50 [4] | IC50 [5] | IC50 [6] | IC50 [7] | IC50 [8] | Vd [9] | Ratio IC50 [10] | IC50 [11] | IC50 [12] | Tmax [14] | Ratio IC50 [15] | IC50 [16] | Ratio IC50 [17] | IC50 [18] | Ratio IC50 [19] | Ratio IC50 [20] | IC50 [21] | further results
1 | CC1(C)OC(=O)N2C[C@H](c3nc(-c4ccc(C(=O)Nc5cc(C(F)(F)F)ccn5)cc4)c4c(N)nccn34)CC[C@H]21 | 125 | 110 | 300 | 13 nM | 36 nM | 23 nM | 2.8 nM | 30 nM | 5.6 L/kg | 2900 | 15 nM | 8 nM | 150 min | 140 | 24 nM | 200 | 350 nM | 570 | 220 | 17 nM | F ([13]; 5 mg/kg): 160%; Ratio IC50 [22]: 1700; IC50 [23]: 79 nM; Ratio IC50 [24]: 660; IC50 [25]: 212 nM; IC50 [26]: 58 nM; IC50 [27]: 69 nM; Cmax [28]: 1000 nM; Ratio IC50 [29]: 250; Ratio IC50 [30]: 67
2 | Nc1nccn2c([C@@H]3CC[C@H]4COC(=O)N4C3)nc(-c3ccc(C(=O)Nc4cc(C(F)(F)F)ccn4)cc3)c12 | 554 | 132 | 554 | 11 nM | 46 nM | 34 nM | 5.8 nM | 35 nM | 1.2 L/kg | 3500 | 46 nM | 14 nM | 15 min | 265 | 50 nM | 600 | 290 nM | 1110 | 1110 | 22 nM | bioavailability [13]: 3.6%; Ratio IC50 [22]: 219; IC50 [23]: 49 nM; Ratio IC50 [24]: 590; IC50 [25]: 18 nM; IC50 [26]: 36 nM; IC50 [27]: 92 nM; Cmax [28]: 340 nM; Ratio IC50 [29]: 420; Ratio IC50 [30]: 169
3 | Nc1nccn2c([C@@H]3CC[C@H]4CCC(=O)N4C3)nc(-c3ccc(C(=O)Nc4cc(C(F)(F)F)ccn4)cc3)c12 | 330 | 59 | 340 | 5.9 nM | 34 nM | 24 nM | 2.5 nM | 12 nM | 0.78 L/kg | 1620 | 33 nM | 9.1 nM | 45 min | 83 | 42 nM | 420 | 162 nM | 330 | 630 | 8.3 nM | bioavailability [13]: 46%; Ratio IC50 [22]: 870; IC50 [23]: 20 nM; Ratio IC50 [24]: 200; IC50 [25]: 87 nM; IC50 [26]: 24 nM; IC50 [27]: 33 nM; Cmax [28]: 1300 nM; Ratio IC50 [29]: 120; Ratio IC50 [30]: 91
